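The concentration for 50% growth inhibition is given as GI50. TGI: total growth inhibition.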
Assays:
Assay in all cases: inhibition of tumour cell growth, NCI panel, 384-well format
NCI-H322M lung = test system: NCI-H322M lung
NCI-H23 lung = test system: NCI-H23 lung
ACHN renal = test system: ACHN renal
HOP-92 NSCLC = test system: HOP-92 NSCLC
SF-268 CNS = test system: SF-268 CNS
SNB-19 CNS = test system: SNB-19 CNS
IGROV1 ovarian = test system: IGROV1 ovarian
RPMI-8226 leukemia = test system: RPMI-8226 leukemia
A549 NSCLC = test system: A549 NSCLC
SK-MEL-28 melanoma = test system: SK-MEL-28 melanoma
BT-549 breast = test system: BT-549 breast
U251 glioblastoma = test system: U251 glioblastoma
OVCAR-4 ovarian = test system: OVCAR-4 ovarian
SNB-75 CNS = test system: SNB-75 CNS
HCT-116 colon = test system: HCT-116 colon
M14 melanoma = test system: M14 melanoma
K-562 leukemia = test system: K-562 leukemia
MOLT-4 leukemia = test system: MOLT-4 leukemia
SW-620 colon = test system: SW-620 colon
MDA-MB-231 breast = test system: MDA-MB-231 breast
KM12 colon = test system: KM12 colon
OVCAR-5 ovarian = test system: OVCAR-5 ovarian
NCI/ADR-RES ovarian = test system: NCI/ADR-RES ovarian
OVCAR-3 ovarian = test system: OVCAR-3 ovarian
T-47D breast = test system: T-47D breast
DU-145 prostate = test system: DU-145 prostate
TK-10 renal = test system: TK-10 renal
HS 578T breast = test system: HS 578T breast
HCC-2998 colon = test system: HCC-2998 colon
UACC-62 melanoma = test system: UACC-62 melanoma
SF-539 CNS = test system: SF-539 CNS
COLO 205 colon = test system: COLO 205 colon
SK-MEL-2 melanoma = test system: SK-MEL-2 melanoma
PC-3 prostate = test system: PC-3 prostate
CCRF-CEM leukemia = test system: CCRF-CEM leukemia
RXF 393 renal = test system: RXF 393 renal
HOP-62 NSCLC = test system: HOP-62 NSCLC
786-0 renal = test system: 786-0 renal
SK-MEL-5 melanoma = test system: SK-MEL-5 melanoma
EKVX NSCLC = test system: EKVX NSCLC
UO-31 renal = test system: UO-31 renal
MDA-MB-435 melanoma = test system: MDA-MB-435 melanoma
MCF7 breast = test system: MCF7 breast
LOX IMVI melanoma = test system: LOX IMVI melanoma
SF-295 CNS = test system: SF-295 CNS
NCI-H460 NSCLC = test system: NCI-H460 NSCLC
HL-60(TB) leukemia = test system: HL-60(TB) leukemia
SN12C renal = test system: SN12C renal
NCI-H226 lung = test system: NCI-H226 lung
MALME-3M melanoma = test system: MALME-3M melanoma
UACC-257 melanoma = test system: UACC-257 melanoma
MDA-MB-468 breast = test system: MDA-MB-468 breast
HCT-15 colon = test system: HCT-15 colon
SK-OV-3 ovarian = test system: SK-OV-3 ovarian
SR leukemia = test system: SR leukemia
CAKI-1 renal = test system: CAKI-1 renal
NCI-H522 lung = test system: NCI-H522 lung
A498 renal = test system: A498 renal

SMILES: COc1ccc(C(=O)CC2(O)C(=O)Nc3c(Cl)ccc(Cl)c32)cc1 (stereo unspecified)
- GI50 (NCI-H322M lung): 5.82 µM
- TGI (NCI-H322M lung): > 100 µM
- GI50 (NCI-H23 lung): 1970 nM
- TGI (NCI-H23 lung): 12.1 µM
- GI50 (ACHN renal): 7.9 µM
- TGI (ACHN renal): > 100 µM
- GI50 (HOP-92 NSCLC): 9.02 µM
- TGI (HOP-92 NSCLC): 54.5 µM
- GI50 (SF-268 CNS): 10.6 µM
- TGI (SF-268 CNS): 31.3 µM
- GI50 (SNB-19 CNS): 2320 nM
- TGI (SNB-19 CNS): 32.8 µM
- GI50 (IGROV1 ovarian): 2780 nM
- TGI (IGROV1 ovarian): > 100 µM
- GI50 (RPMI-8226 leukemia): 1170 nM
- TGI (RPMI-8226 leukemia): 2560 nM
- GI50 (A549 NSCLC): 2100 nM
- TGI (A549 NSCLC): > 100 µM
- GI50 (SK-MEL-28 melanoma): 15.9 µM
- TGI (SK-MEL-28 melanoma): > 100 µM
- GI50 (BT-549 breast): 509 nM
- TGI (BT-549 breast): 10.9 µM
- GI50 (U251 glioblastoma): 1130 nM
- TGI (U251 glioblastoma): 12.5 µM
- GI50 (OVCAR-4 ovarian): 8.8 µM
- TGI (OVCAR-4 ovarian): 85.6 µM
- GI50 (SNB-75 CNS): 2260 nM
- TGI (SNB-75 CNS): 15.8 µM
- GI50 (HCT-116 colon): 568 nM
- TGI (HCT-116 colon): 32.1 µM
- GI50 (M14 melanoma): 529 nM
- TGI (M14 melanoma): 2570 nM
- GI50 (K-562 leukemia): 354 nM
- TGI (K-562 leukemia): 1650 nM
- GI50 (MOLT-4 leukemia): 216 nM
- TGI (MOLT-4 leukemia): 426 nM
- GI50 (SW-620 colon): 452 nM
- TGI (SW-620 colon): > 100 µM
- GI50 (MDA-MB-231 breast): 13.2 µM
- TGI (MDA-MB-231 breast): > 100 µM
- GI50 (KM12 colon): 467 nM
- TGI (KM12 colon): 25.6 µM
- GI50 (OVCAR-5 ovarian): 9.83 µM
- TGI (OVCAR-5 ovarian): > 100 µM
- GI50 (NCI/ADR-RES ovarian): 346 nM
- TGI (NCI/ADR-RES ovarian): 1360 nM
- GI50 (OVCAR-3 ovarian): 382 nM
- TGI (OVCAR-3 ovarian): 1250 nM
- GI50 (T-47D breast): 9.17 µM
- TGI (T-47D breast): 52 µM
- GI50 (DU-145 prostate): 2790 nM
- TGI (DU-145 prostate): 12.1 µM
- GI50 (TK-10 renal): 1360 nM
- TGI (TK-10 renal): > 100 µM
- GI50 (HS 578T breast): 1090 nM
- TGI (HS 578T breast): 2760 nM
- GI50 (HCC-2998 colon): 1800 nM
- TGI (HCC-2998 colon): 36.2 µM
- GI50 (UACC-62 melanoma): 380 nM
- TGI (UACC-62 melanoma): 4.27 µM
- GI50 (SF-539 CNS): 1680 nM
- TGI (SF-539 CNS): 5.35 µM
- GI50 (COLO 205 colon): 646 nM
- TGI (COLO 205 colon): > 100 µM
- GI50 (SK-MEL-2 melanoma): 864 nM
- TGI (SK-MEL-2 melanoma): 3.02 µM
- GI50 (PC-3 prostate): 2270 nM
- TGI (PC-3 prostate): > 100 µM
- GI50 (CCRF-CEM leukemia): 656 nM
- TGI (CCRF-CEM leukemia): 1900 nM
- GI50 (RXF 393 renal): 960 nM
- TGI (RXF 393 renal): 5.08 µM
- GI50 (HOP-62 NSCLC): 1260 nM
- TGI (HOP-62 NSCLC): 47.8 µM
- GI50 ([…]-0 renal): 3.61 µM
- TGI (786-0 renal): 21.7 µM
- GI50 (SK-MEL-5 melanoma): 663 nM
- TGI (SK-MEL-5 melanoma): 5.85 µM
- GI50 (EKVX NSCLC): 3.81 µM
- TGI (EKVX NSCLC): 52 µM
- GI50 (UO-31 renal): 8.45 µM
- TGI (UO-31 renal): > 100 µM
- GI50 (MDA-MB-435 melanoma): 207 nM
- TGI (MDA-MB-435 melanoma): 431 nM
- GI50 (MCF7 breast): 1070 nM
- TGI (MCF7 breast): 21 µM
- GI50 (LOX IMVI melanoma): 4.44 µM
- TGI (LOX IMVI melanoma): 21 µM
- GI50 (SF-295 CNS): 1550 nM
- TGI (SF-295 CNS): 8.41 µM
- GI50 (NCI-H460 NSCLC): 477 nM
- TGI (NCI-H460 NSCLC): 2480 nM
- GI50 (HL-60(TB) leukemia): 237 nM
- TGI (HL-60(TB) leukemia): 474 nM
- GI50 (SN12C renal): 3.28 µM
- TGI (SN12C renal): 20.8 µM
- GI50 (NCI-H226 lung): 6.25 µM
- TGI (NCI-H226 lung): 50 µM
- GI50 (MALME-3M melanoma): 13.9 µM
- TGI (MALME-3M melanoma): 45.4 µM
- GI50 (UACC-257 melanoma): 6.69 µM
- TGI (UACC-257 melanoma): 21.6 µM
- GI50 (MDA-MB-468 breast): 215 nM
- TGI (MDA-MB-468 breast): 571 nM
- GI50 (HCT-15 colon): 369 nM
- TGI (HCT-15 colon): 14.4 µM
- GI50 (SK-OV-3 ovarian): 2560 nM
- TGI (SK-OV-3 ovarian): 95.6 µM
- GI50 (SR leukemia): 113 nM
- TGI (SR leukemia): 256 nM
- GI50 (CAKI-1 renal): 679 nM
- TGI (CAKI-1 renal): > 100 µM
- GI50 (NCI-H522 lung): 264 nM
- TGI (NCI-H522 lung): 587 nM
- GI50 (A498 renal): 3.72 µM
- TGI (A498 renal): 46.7 µM
